In patent US8658693B2, “4-aminobenzonitrile selective androgen receptor modulators” (Eli Lilly and Company, priority 2011, dated 2014):
Where two headings read alike, the source gives them in different places.

How the values were obtained:
[1] = target: T1, human androgen receptor (AR) (Homo sapiens, UniProt P10275); assay: C2C12 AR/ARE reporter assay; format: cell-based; details: mouse myoblast C2C12 cells, luciferase reporter, 24 h
T1 construct: expressed in transfected cells; host or cells: mouse myoblast C2C12 cells
T1 sequence (P10275 1-920): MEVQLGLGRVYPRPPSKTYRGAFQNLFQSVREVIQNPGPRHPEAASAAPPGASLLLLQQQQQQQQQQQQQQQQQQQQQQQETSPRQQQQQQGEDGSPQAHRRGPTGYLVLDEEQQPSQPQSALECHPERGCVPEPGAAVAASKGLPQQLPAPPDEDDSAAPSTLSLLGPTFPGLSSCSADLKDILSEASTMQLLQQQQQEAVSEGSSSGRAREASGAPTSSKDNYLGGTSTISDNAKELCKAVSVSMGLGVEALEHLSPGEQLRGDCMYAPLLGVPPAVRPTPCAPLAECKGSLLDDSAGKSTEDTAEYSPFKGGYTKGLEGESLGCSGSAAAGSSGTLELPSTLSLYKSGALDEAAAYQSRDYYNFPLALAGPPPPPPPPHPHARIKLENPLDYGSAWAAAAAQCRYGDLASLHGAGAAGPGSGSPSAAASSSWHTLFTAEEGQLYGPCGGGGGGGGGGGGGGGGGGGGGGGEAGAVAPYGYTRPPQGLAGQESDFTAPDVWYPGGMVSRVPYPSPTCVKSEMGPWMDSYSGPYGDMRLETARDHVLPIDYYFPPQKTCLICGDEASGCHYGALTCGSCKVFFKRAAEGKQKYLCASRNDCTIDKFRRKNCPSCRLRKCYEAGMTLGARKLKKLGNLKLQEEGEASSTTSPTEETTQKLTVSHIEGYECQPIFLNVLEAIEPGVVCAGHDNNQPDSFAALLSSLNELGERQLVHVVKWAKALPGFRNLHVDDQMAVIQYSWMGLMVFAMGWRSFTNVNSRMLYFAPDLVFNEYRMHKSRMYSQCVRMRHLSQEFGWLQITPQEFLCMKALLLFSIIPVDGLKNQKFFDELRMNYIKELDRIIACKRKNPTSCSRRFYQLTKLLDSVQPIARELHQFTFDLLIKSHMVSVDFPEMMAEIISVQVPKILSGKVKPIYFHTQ

[2] = target: T2, human AR (androgen receptor) (Homo sapiens, UniProt P10275); assay: Steroid hormone nuclear receptor binding assay, AR; details: HEK293 lysate, [3H]-methyltrienolone
T2 construct: expressed in transfected cells; host or cells: HEK293
T2 sequence (P10275 1-920): T1 sequence (P10275 1-920)

[3] = target: T3, human PR (progesterone receptor) (Homo sapiens, UniProt P06401); assay: Steroid hormone nuclear receptor binding assay, PR; details: HEK293 lysate, [3H]-methyltrienolone
T3 construct: expressed in transfected cells; host or cells: HEK293
T3 sequence (P06401 1-933): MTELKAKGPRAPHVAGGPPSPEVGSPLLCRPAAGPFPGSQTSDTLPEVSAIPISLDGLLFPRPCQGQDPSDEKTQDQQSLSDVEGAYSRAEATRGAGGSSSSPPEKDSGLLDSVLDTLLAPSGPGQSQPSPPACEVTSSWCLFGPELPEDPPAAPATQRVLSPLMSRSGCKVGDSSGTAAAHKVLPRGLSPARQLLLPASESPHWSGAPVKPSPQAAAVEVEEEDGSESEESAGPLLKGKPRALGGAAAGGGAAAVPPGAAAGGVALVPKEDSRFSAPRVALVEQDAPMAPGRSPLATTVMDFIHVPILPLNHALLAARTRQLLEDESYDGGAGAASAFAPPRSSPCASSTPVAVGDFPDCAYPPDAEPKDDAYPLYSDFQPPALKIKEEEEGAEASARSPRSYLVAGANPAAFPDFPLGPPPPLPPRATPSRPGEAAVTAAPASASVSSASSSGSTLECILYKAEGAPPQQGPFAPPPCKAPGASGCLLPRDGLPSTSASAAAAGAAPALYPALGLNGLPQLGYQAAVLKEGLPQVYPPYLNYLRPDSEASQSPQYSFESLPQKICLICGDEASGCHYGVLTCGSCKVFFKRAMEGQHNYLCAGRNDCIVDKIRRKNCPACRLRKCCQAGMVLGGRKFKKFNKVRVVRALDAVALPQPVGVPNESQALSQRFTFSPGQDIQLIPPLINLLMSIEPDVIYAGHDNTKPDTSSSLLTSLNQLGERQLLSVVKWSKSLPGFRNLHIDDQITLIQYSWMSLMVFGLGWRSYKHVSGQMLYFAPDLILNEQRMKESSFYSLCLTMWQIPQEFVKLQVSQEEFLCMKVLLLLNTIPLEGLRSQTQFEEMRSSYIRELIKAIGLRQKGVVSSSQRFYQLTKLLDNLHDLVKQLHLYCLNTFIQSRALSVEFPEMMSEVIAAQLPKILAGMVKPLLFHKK

[4] = target: T4, human MR (mineralocorticoid receptor) (Homo sapiens, UniProt P08235); assay: Steroid hormone nuclear receptor binding assay, MR; details: HEK293 lysate, [3H]-aldosterone
T4 construct: expressed in transfected cells; host or cells: HEK293
T4 sequence (P08235 1-984): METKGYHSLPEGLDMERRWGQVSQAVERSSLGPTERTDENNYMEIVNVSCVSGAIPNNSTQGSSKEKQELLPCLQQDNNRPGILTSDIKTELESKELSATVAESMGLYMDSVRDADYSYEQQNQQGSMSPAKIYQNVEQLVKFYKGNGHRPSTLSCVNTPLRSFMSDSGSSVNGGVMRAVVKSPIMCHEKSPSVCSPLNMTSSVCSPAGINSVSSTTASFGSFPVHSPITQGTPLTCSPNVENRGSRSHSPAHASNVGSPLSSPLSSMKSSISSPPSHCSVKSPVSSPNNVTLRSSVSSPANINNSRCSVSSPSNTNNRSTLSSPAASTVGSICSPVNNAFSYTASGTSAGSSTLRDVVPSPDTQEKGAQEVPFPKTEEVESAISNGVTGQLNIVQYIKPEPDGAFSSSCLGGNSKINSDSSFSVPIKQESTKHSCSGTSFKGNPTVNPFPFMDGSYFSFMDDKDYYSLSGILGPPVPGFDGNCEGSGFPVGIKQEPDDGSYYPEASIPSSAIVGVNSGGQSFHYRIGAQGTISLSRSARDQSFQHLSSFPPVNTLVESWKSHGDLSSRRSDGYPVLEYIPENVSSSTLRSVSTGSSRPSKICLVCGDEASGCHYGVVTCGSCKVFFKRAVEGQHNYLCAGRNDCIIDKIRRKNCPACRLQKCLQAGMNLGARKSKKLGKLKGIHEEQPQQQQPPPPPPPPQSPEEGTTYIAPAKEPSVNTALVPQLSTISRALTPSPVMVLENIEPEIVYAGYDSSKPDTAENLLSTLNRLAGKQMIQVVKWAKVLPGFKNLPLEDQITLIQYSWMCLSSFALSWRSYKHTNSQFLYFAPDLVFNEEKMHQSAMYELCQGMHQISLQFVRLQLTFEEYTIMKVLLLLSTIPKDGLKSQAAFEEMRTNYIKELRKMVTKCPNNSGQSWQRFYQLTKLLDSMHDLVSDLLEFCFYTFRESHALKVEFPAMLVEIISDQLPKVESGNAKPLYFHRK

[5] = target: T5, human GR (glucocorticoid receptor) (Homo sapiens, UniProt P04150); assay: Steroid hormone nuclear receptor binding assay, GR
T5 construct: expressed in transfected cells; host or cells: HEK293
T5 sequence (P04150 1-777): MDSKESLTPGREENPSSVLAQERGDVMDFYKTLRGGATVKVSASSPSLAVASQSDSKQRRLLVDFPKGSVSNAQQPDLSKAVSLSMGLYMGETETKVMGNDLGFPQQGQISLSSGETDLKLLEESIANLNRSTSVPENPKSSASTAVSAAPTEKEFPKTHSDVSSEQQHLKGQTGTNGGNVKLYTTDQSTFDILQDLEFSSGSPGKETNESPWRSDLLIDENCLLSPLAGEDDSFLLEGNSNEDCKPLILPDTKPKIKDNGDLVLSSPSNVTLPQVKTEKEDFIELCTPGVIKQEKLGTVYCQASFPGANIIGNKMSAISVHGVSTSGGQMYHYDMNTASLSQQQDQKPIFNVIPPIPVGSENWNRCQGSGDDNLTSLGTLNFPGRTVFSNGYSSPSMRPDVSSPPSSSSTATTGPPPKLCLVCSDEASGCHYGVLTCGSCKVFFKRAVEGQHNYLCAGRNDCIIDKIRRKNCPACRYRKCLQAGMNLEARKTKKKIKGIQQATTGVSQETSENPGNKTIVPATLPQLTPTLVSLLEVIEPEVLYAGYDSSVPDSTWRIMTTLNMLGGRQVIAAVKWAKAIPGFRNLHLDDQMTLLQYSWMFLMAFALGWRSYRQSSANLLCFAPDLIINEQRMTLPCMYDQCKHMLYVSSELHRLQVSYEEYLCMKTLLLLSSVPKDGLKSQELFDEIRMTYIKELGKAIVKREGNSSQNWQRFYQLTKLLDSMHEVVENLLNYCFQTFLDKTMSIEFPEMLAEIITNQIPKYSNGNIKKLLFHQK

[6] = tested on: HDL cholesterol in Cynomolgus monkeys; details: transdermal delivery
[7] = HEK293 lysate, [3H]-dexamethasone, read-out: GR (Ki nM)

Compound | EC50 [1] | Ki [2] | Ki [3] | Ki [4] | Ki [5, 7] | Ki [5] | effect on HDL [6]
Cc1c(N[C@H]2CC[C@H](O)[C@]2(C)O)ccc(C#N)c1Cl (single isomer, unassigned) [Example 20] | 0.146 µM | 38.1 nM | > 7960 nM | > 7150 nM | > 5730 nM | – | –
CCc1c(NC2CCOCC2(C)O)ccc(C#N)c1Cl (single isomer, unassigned; diastereomer 2) [Example 32, 2-Chloro-3-ethyl-4-[[3-hydroxy-3-methyl-tetrahydropyran-4-yl]amino]benzonitrile, Diastereomer 2] | 0.274 µM | 162 nM | 4290 nM | 3960 nM | > 5820 nM | – | –
Cc1c(N[C@@H]2CCC[C@@]2(C)O)ccc(C#N)c1Cl (single isomer, unassigned) [Example 1] | – | – | – | – | – | > 6020 nM | minimal effect
